Here are results for 14 compounds from ChEMBL document CHEMBL2331360, “QSAR studies of sulfamate and sulfamide inhibitors targeting human carbonic anhydrase isozymes I, II, IX and XII” (Bioorg Med Chem, 2013).

The target of assay [1] is Carbonic anhydrase 9 (Homo sapiens) (UniProt Q16790).
Description: Inhibition of human carbonic anhydrase-9
For assay [2], the target named is Carbonic anhydrase 2 (Homo sapiens) (UniProt P00918).
Description: Inhibition of human carbonic anhydrase-2

Regarding `NS(=O)(=O)Nc1ccc(NC(=O)Nc2ccccc2-c2ccccc2)cc1`, the log(43000/Ki) in assay [1] stood at 2.47; in assay [2], 1.68.
For `NS(=O)(=O)Nc1ccc(NC(=O)NCCc2ccccc2)cc1` the same measures were 3.59 and 2.44.
The like results for `NS(=O)(=O)Nc1ccc(NC(=O)NC2CCCCC2)cc1` were, in that order, 2.55 and 2.08.
For `CCCCOc1ccc(NC(=O)Nc2ccc(NS(N)(=O)=O)cc2)cc1`, the log(43000/Ki) in assay [1] stood at 3.43; in assay [2], 2.14.
For `CC(NC(=O)Nc1ccc(NS(N)(=O)=O)cc1)c1cccc2ccccc12` (stereo not drawn) the same measures were 3.35 and 2.02.
For `NS(=O)(=O)Nc1ccc(NC(=O)Nc2ccc(Cl)cc2)cc1` the same measures were 3 and 2.13.
Consider `CC(C)c1ccccc1NC(=O)Nc1ccc(NS(N)(=O)=O)cc1`, for which the log(43000/Ki) in assay [1] worked out at 2.64; in assay [2] it was 1.8.
On to `NS(=O)(=O)Oc1ccc(NC(=O)NC23CC4CC(CC(C4)C2)C3)cc1`, for which the figures for the log(43000/Ki) in assay [1] and in assay [2] were 3.31 and 1.96, respectively.
For `NS(=O)(=O)Nc1ccc(NC(=O)NCc2ccco2)cc1` the same measures were 3.35 and 2.1.
For `COc1ccc(C)cc1NC(=O)Nc1ccc(NS(N)(=O)=O)cc1` the same measures were 3.03 and 1.99.
For `NS(=O)(=O)Nc1ccc(NC(=O)Nc2cccc([N+](=O)[O-])c2)cc1` the same measures were 3.43 and 2.01.
With `Cc1cc(C)cc(NC(=O)Nc2ccc(NS(N)(=O)=O)cc2)c1`, the values for the log(43000/Ki) in assay [1] and in assay [2] were 3.63 and 1.8, respectively.
The like results for `NS(=O)(=O)Nc1ccc(NC(=O)NCc2ccccc2)cc1` were, in that order, 3.63 and 2.47.
The like results for `COc1ccc(NC(=O)Nc2ccc(NS(N)(=O)=O)cc2)c(C)c1` were, in that order, 3.31 and 2.14.
